Data from patent US11485701B2, “Insect repellent compounds and compositions, and methods thereof” (Iowa State University Research Foundation, Inc., priority 2016, dated 2022).

Assays:
Assay type in all cases: in vivo
[1] = test system: female Aedes aegypti (Orlando strain, 1952); assay: Minimum effective dosage testing, human skin (treated cloth patch); settings: for Proportion to DEET: average MED relative to DEET; for Minimum Effective Dosage, Average: mean across subjects; for Minimum Effective Dosage, Subject 1 / Minimum Effective Dosage, Subject 2 / Minimum Effective Dosage, Subject 3: treated cloth patch, 1 min test, high dose 1.5 mg/cm^2
Description: The test mosquitoes were female Aedes aegypti (Orlando strain, 1952) from the colony maintained at United States Department of Agriculture-Agricultural Research Service-Center for Medical, Agricultural and Veterinary Entomology (USDA-ARS-CMAVE) in Gainesville, Fla. Pupae were obtained from the colony and newly emerged mosquitoes were maintained on 10% sugar water and kept in laboratory cages at an ambient temperature of 28±1° C. and RH of 35-60%. Host seeking behavior was pre-selected in nulliparous female mosquitoes aged 6-10 days, indicated by flight upwind towards a potential host, from stock cages using a hand-draw box and trapped in a collection trap.
After 500 (±10%) females were collected in the trap, they were transferred to a test cage (approximately 59,000 cm^3 with dimensions 45×37.5×35 cm) and allowed to acclimatize for 17.5 (±2.5) min before testing was initiated. Just prior to the experiment, the pieces of treated cloth are removed from the vials and stapled onto card stock tabs (5×3 cm). Each piece of the cards and the assembly were hung on a drying rack using masking tape for 3-5 min. Participants in the study used latex gloves to pull a nylon stocking over their arm. A Velcro™-sealed vinyl sleeve was then placed over the forearm. […] The purpose of the nylon stocking was to produce a barrier between the dried cloth and the skin, thereby avoiding direct contact of chemical to skin. The dried cloth assembly was affixed over the opening in the sleeve and held in place with masking tape. Participants then inserted their arm with the sleeve and patch into a screened cage that contained female Ae. Aegypti mosquitoes. Tests were conducted on each control or treated patch for 1 min. A control patch (acetone solvent only, then dried) was tested prior to the start of experiments and evaluation of the same untreated control patch after every 10 tests. If 5 landings were not received on the control patch in 30 s, then tests were discontinued for 60 min. At the conclusion of testing the control patch was tested again. If five landings were not received within 30 s, the data for the replicate was discarded. When testing a patch treated with a candidate repellent, if approximately 1% or 5 mosquito bites were received during this one minute test, this compound was considered to have failed, i.e., was not repellent at that concentration. If a treated cloth patch received 0-4 bites within a minute, then it was considered as passed, i.e., repellent at that concentration of the test compound. The median concentration patch was tested in the first round and treated patches were then tested successively at higher or lower concentrations depending upon whether the previous patch failed or passed, respectively.
The time interval between each tested patch was <90 seconds until 10 successive tests had been conducted. If appreciable, mortality had occurred during testing, the number of knocked down mosquitoes are estimated and additional female mosquitoes are added to the cage to keep the available mosquitoes at approximately 500. The estimate of the MED was the lowest concentration that passed for each candidate. Observed MED values for each candidate compound were averaged across participants and reported as a mean MED±standard error.

[2] = test system: Northern house mosquitoes (Culex pipiens); assay: Short-term spatial repellency, static air repellency chamber; settings: for pest or weed control at 0.5 %: Culex pipiens
Method in brief: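 Adult females 5-7 days post-emergence, ~20 per chamber, exposed in a 9×60 cm glass tube to filter paper treated with compound in acetone, the other end untreated. Distribution scored at 15-150 min as % spatial repellency; acetone controls, four replicates.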

[3] = test system: Northern house mosquitoes (Culex pipiens); assay: Long-term spatial repellency, static air repellency chamber, filter papers air-dried 5 hours; settings: air-dried 5 hours; for pest or weed control at 0.5 %: Culex pipiens
Description: (§1) Northern house mosquitoes (Culex pipiens), a primary carrier of West Nile virus in eastern North America, were obtained from an established colony in the Medical Entomology Laboratory in the Department of Entomology at Iowa State University of Science and Technology, Ames Iowa. Mosquito rearing was performed by established protocols that are maintained by the Medical Entomology Laboratory. Repellency bioassays were performed with adult female mosquitoes that were 5-7 days post-emergent. […] Mosquitoes, prior to testing, were held at 27° C., 80% relative humidity, and on a 16:8 hr light:dark photoperiod.
Repellency bioassays were performed using a static air repellency chamber, which has been described in various publications by the Pesticide Toxicology Laboratory at Iowa State University of Science and Technology, Ames, Iowa Briefly, a 9-cm×60-cm glass tube was used to monitor the distribution of mosquitoes at 15 min, 30 min, 60 min, 90 min, 120 min, and 150 min after introducing mosquitoes into the static air repellency chamber. Treated filter papers were treated with 1 mL of 0.5% solution in acetone of the terpenoid analogs created in the lab and were exposed to ambient air for 5 hours before they were introduced into the spatial chamber for testing. This is a slight modification of the method described in Example 2, so as to evaluate the residual repellent character of these compounds on a treated surface after 5 hours. One end of the spatial chamber contained a treated filter paper, whereas the other (untreated) end of the spatial chamber was not treated with compound. Controls contained filter papers treated with acetone, the solvent used to make the 0.5% solutions. Each end of the repellency chamber was secured with a 100-mm Petri dish using celluloid tape. After securing the petri dishes with corresponding treated or untreated filter papers to the spatial chamber, mosquitoes were anesthetized with carbon dioxide, and approximately 20 female mosquitoes were placed into each repellency chamber for one replicate. The opening of the spatial repellency chamber was secured with celluloid tape to prevent their escape. Chambers were oriented in opposite directions from the previous replicate to account for any directional effect. Four replicates were performed for data analysis for both the control and treatment groups.
Data for spatial repellency, the percentage repellency, is reported at each of the respective time points in the figures and tables mentioned below in this disclosure. The percentage spatial repellency is the examination of the distribution of mosquitoes and is calculated using the following equation: […]

[4] = test system: Northern house mosquitoes (Culex pipiens); assay: Contact irritancy assay (percent escape from treated chamber); settings: organza netting treated with 0.5% solution; 10 min; FIG. 14
Description: as §1
Organza were cut to approximately 11.5 cm×8 cm to wrap around the inside of the contact irritancy chamber. This piece of organza was treated with 1.5 mL of 0.5% or 0.05% solution of test compound in acetone. This organza was allowed to air-dry for 15 minutes before introducing them into the chamber. Organza sheets were draped around the inside wall of the metallic chamber and fastened to the walls of the chamber with small magnets. […] After ten minutes, the butterfly valve was once again closed and the number of mosquitoes was counted in the clear “counting” chamber. […]

[5] = 0.25 h, filter paper, 1 mL of 0.5% solution in acetone, air-dried 15 min, 15 min after introduction, read-out: Short-term Percentage repellency 15 min
[6] = 1.5 h, filter paper, 1 mL of 0.5% solution in acetone, air-dried 15 min, 90 min, read-out: Short-term Percentage repellency 90 min
[7] = 2.5 h, filter paper, 1 mL of 0.5% solution in acetone, air-dried 15 min, 150 min, read-out: Short-term Percentage repellency 150 min
[8] = 0.25 h, 1 mL of 0.5% solution in acetone, 15 min, read-out: Long-term Percentage repellency 15 min
[9] = 1.5 h, 1 mL of 0.5% solution in acetone, 90 min, read-out: Long-term Percentage repellency 90 min
[10] = 2.5 h, 1 mL of 0.5% solution in acetone, 150 min, read-out: Long-term Percentage repellency 150 min

SMILES | Proportion to DEET [1] | Minimum Effective Dosage, Average [1] | Minimum Effective Dosage, Subject 1 [1] | Minimum Effective Dosage, Subject 2 [1] | Minimum Effective Dosage, Subject 3 [1] | further results
CC(C)=CCC/C(C)=C/C(=O)OCCO [2-hydroxyethyl geranate] | 13.140 | 0.250 mg/cm^2 | 0.187 mg/cm^2 | 0.375 mg/cm^2 | 0.187 mg/cm^2 | 
CC(O)COC(=O)C=Cc1ccccc1 (centres unmarked) [2-hydroxypropyl cinnamate] | 19.737 | 0.375 mg/cm^2 |  | 0.375 mg/cm^2 | 0.375 mg/cm^2 | 
CC(C)=CCC/C(C)=C/C(=O)OCC(C)O (centres unmarked) [2-hydroxypropyl geranate] | 2.474 | 0.047 mg/cm^2 | 0.047 mg/cm^2 | 0.047 mg/cm^2 | 0.047 mg/cm^2 | 
O=C(C=Cc1ccccc1)OCCCO [3-hydroxypropyl cinnamate] | 52.632 | 1.000 mg/cm^2 | 0.750 mg/cm^2 | 1.500 mg/cm^2 | 0.750 mg/cm^2 | 
CC(C)=CCCC(C)CC(=O)OCCCO (centres unmarked) [3-hydroxypropyl citronellate] | 3.702 | 0.070 mg/cm^2 | 0.094 mg/cm^2 | 0.094 mg/cm^2 | 0.023 mg/cm^2 | 
CC(C)=CCC/C(C)=C/C(=O)OCCCO [3-hydroxypropyl geranate] | 6.579 | 0.125 mg/cm^2 | 0.187 mg/cm^2 | 0.094 mg/cm^2 | 0.094 mg/cm^2 | 
CC(C)=CCCC(C)CCOC(=O)C1CC1 (centres unmarked) [Compound 1035A, citronellyl cyclopropanecarboxylate] |  |  |  |  |  | pest or weed control at 0.5 % [2, 5]: 22.5%; pest or weed control at 0.5 % [2, 6]: 92.5%; pest or weed control at 0.5 % [2, 7]: 90%; Short-term repellency at low concentration, in words ([2]; filter paper treated with 0.1%, FIG. 6): significant levels of repellency; pest or weed control at 0.5 % [3, 8]: 70%; pest or weed control at 0.5 % [3, 9]: 80%; pest or weed control at 0.5 % [3, 10]: 62.5%; Contact irritancy, percentage escape [4]: 80%
CCN(CC)C(=O)c1cccc(C)c1 [DEET, N,N-diethyl-meta-toluaminde, reference compound] | 1.000 | 0.019 mg/cm^2 | 0.023 mg/cm^2 | 0.023 mg/cm^2 | 0.011 mg/cm^2 | Short-term percentage repellency 30 min ([2]; 1 mL of 0.5% solution in acetone, 30 minutes): 53.3%; Short-term Percentage repellency 15 min ([2]; filter paper, 1 mL of 0.5% solution in acetone, air-dried 15 min, 15 min after introduction): 20%±15.3; Long-term percentage repellency 30 min ([3]; 0.5% solution, 30 minutes): 22.5%; Long-term Percentage repellency 15 min ([3]; 1 mL of 0.5% solution in acetone, 15 min): 32.5%±14.4
CC1CCC(C(C)(C)O)C(O)C1 (centres unmarked) [p-menthane-3,8-diol, reference compound] |  |  |  |  |  | pest or weed control at 0.5 % [2, 5]: 12.5%; pest or weed control at 0.5 % [2, 6]: 12.5%; pest or weed control at 0.5 % [2, 7]: 20%; pest or weed control at 0.5 % [3, 8]: 7.5%; pest or weed control at 0.5 % [3, 9]: 5%; pest or weed control at 0.5 % [3, 10]: 5%; Contact irritancy, percentage escape [4]: approximately 65%
